Assays:
[1] = Structural organisation study via 31P NMR (Hahn echo) of hydrated lipids; type: physicochemical; conditions: hydrated medium, ambient temperature
Protocol: A stock solution of a cationic lipid is prepared in the chloroform. A volume of stock solution corresponding to a weight in lipids between 50 mg and 100 mg is pipette into a haemolysis tube and the chloroform is evaporated under of flow of N2 in such a way as to obtain a lipid film. 500 μL of water is then added and the mixture is subjected to ultrasound until complete dispersion of the lipid film. The mixture is lysed for one night. A volume of distilled water is then added in order to obtain a solution with a concentration of 100 mg·mL^−1. In order to ensure the balance of the sample, three cycles −198° C./50° C. are carried out: the sample is placed at −198° C. (liquid nitrogen) for 5 min, then the sample is placed in a water bath at 50° C. for 30 min and is vortexed.
The NMR ^31P spectra were acquired with a Hahn echo sequence (90°-τ-180°-τ-acq). The acquisition parameters were as follows: spectral window of 200 KHz, a pulse π/2 with a duration of […], a recycling period of 5 s and an echo period of 40 μs. The number of acquisitions depends on the volume of the sample and the acquisition temperature, and is between 128 and 1700 scans. The temperature of the sample is balanced for 30 min before the start of the acquisition. Lorentzian noise is filtered over the entire spectral window before the Fourier transform on the top of the echo. […]

[2] = Measurement of the size and zeta potential of liposomes (Zetasizer Nano ZS); type: physicochemical; conditions: liposomal solution in water, 25° C.
Protocol: The cationic lipids were formulated in a liposomal solution by the method of hydration of a lipid film. Initially, a fraction of a concentrated solution of the cationic lipid is placed in a glass tube and evaporated to give a thin lipid film. 1 mL of water is then added to the film and the film is hydrated for 3 days at 4° C. The solution is then vortexed (1 min) and placed under ultrasound (30 to 60 min) at 45 kHz. Then 150 μL of the liposomal solution is diluted in 1.5 mL of sterile water. After filtration ([…]) of the liposomal solution, the size and the zeta potential of liposomes and lipoplexes are determined.
The size and zeta potential (ξ) of the liposomes and of the lipoplexes were measured with a Zetasizer Nano ZS (Malvern Instruments) at 25° C. after a suitable dilution of the formulations. For the measurements of the lipoplexes, each test used […] of plasmid DNA in water with the required amount of cationic lipid studied in order to form lipoplexes with charge ratios ranging from 0.5 to 8.0. For the measurements of the liposomes, a quantity of lipid equivalent to a mixture having a 1.0 charge ratio in water was used.

## CCCCCCCC/C=C/CCCCCCCCOP(=O)(NCC[N+](C)(C)C)OCCCCCCCC/C=C/CCCCCCCC.[I-] [Compound I-1]
[1]
  structure of the supramolecular aggregates (self-organisation): lamellar form
[2]
  PdI: 0.26
  Size (nm): 94 nm
  Zeta Potential (mV): +54 mV

— patent US10676492B2, “Branched amphiphilic lipids” (UNIVERSITÉ DE BRETAGNE OCCIDENTALE, priority 2015, dated 2020)
